Key:
[1] = biological target: T1, Alpha-1B adrenergic receptor (Homo sapiens, UniProt P35368)
T1 sequence (P35368 whole entry): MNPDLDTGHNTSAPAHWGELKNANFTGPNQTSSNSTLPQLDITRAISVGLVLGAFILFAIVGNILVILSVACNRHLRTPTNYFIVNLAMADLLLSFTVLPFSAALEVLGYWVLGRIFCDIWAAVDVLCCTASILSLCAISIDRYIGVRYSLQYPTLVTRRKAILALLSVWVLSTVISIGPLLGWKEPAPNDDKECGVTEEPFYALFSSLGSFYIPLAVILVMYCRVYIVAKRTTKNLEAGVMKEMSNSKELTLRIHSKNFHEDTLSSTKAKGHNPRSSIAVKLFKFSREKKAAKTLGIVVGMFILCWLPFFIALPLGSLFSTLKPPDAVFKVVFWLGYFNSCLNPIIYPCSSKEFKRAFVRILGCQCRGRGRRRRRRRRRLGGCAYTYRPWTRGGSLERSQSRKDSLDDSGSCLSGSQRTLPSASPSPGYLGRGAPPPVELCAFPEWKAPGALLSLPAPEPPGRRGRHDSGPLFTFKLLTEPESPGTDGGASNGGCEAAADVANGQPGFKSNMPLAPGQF

[2] = biological target: T2, Alpha-1D adrenergic receptor (Homo sapiens, UniProt P25100)
T2 sequence (P25100 whole entry): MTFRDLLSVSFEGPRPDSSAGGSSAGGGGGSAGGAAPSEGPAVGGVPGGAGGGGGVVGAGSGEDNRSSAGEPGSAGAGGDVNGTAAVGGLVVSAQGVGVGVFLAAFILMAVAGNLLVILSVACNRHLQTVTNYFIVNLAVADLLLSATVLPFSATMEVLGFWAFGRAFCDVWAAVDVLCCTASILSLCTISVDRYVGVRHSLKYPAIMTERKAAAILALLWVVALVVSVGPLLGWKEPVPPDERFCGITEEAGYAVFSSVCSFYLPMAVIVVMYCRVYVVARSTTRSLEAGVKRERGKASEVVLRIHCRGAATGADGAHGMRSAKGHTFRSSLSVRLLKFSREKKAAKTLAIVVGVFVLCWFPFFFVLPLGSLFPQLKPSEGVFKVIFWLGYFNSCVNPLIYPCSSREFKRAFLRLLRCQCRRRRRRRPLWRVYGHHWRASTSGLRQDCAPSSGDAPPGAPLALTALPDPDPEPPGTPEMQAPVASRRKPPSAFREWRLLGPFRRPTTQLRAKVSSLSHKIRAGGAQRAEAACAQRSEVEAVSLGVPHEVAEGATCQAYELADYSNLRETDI

| Ki [1] [nM] | Ki [2] [nM] | Compound |
| --- | --- | --- |
| 25.1 | 0.91 | COc1cccc2c1C1CN(CCCCn3c(=O)[nH]c4c(sc5ncc(-c6ccccc6)nc54)c3=O)CC1CO2 (stereo not given) [CAS_172307] |
| 0.6 | 0.056 | CCOc1ccccc1OCCN[C@H](C)Cc1ccc(OC)c(S(N)(=O)=O)c1 [5-[(2R)-2-{[2-(2-ethoxyphenoxy)ethyl]amino}propyl]-2-methoxybenzenesulfonamide] |
| – | 0.66 | COc1cc2nc(N3CCN(C(=O)C4CCCO4)CC3)nc(N)c2cc1OC (stereo not given) [6,7-dimethoxy-2-[4-(tetrahydrofuran-2-ylcarbonyl)piperazin-1-yl]quinazolin-4-amine] |
